Measurements reported in patent US7825104B2, “Methods and compositions for treating fungal infections” (Ramot at Tel Aviv University Ltd., priority 2001, dated 2010).

Columns and labels:
Trichophyton rubrum = assay: in vitro fungicidal/fungistatic test on T. rubrum cultures; assay type: cell-based; settings: concentration range of 5-10 mg/ml tested
Description: An in vitro test was designed for testing the fungicidal or fungistatic activity of PBA and its water-soluble derivatives. Cultures of T. rubrum were grown on 100 microliters SDB agar in a standard 96 well plate. Following an initial growth period of about 24 hours, each well was treated with 50-100 microliters of the reagent tested. Following an appropriate incubation period with or without washing, residual viability was estimated from comparison with appropriate controls, followed by secondary verification of viability tests by transfer of a part of the treated culture into a fresh well for optional recovery and growth. […] The photograph was taken four days after treatment.

Candida parapsilosis = assay: in vitro fungicidal/inhibitory effect on Candida parapsilosis; assay type: cell-based
Bacilus megaterium = assay: in vitro effect on Bacillus megaterium (control, Cyt P-450 containing bacteria); assay type: cell-based; settings: solution of about 5-10 mg/ml
[1] = ORL-RAT; cited from earlier work
[2] = cited from earlier work

## OB(O)c1ccccc1 [PBA, Phenyl boronic acid]
Trichophyton rubrum
  effect on T. rubrum: fungicidal
Candida parapsilosis; 5 mg/ml
  effect on C. parapsylosis: fungistatic
Candida parapsilosis; 10 mg/ml
  effect on C. parapsylosis: fungicidal
Bacilus megaterium
  activity against Bacillus megaterium: antibiotic activity
[1]
  LD50: 740 mg/kg
[2]
  solubility in water: reasonably soluble in water
